# Patent publication US20230295182A1, “SPIRO DERIVATIVES OF ALPHA-D-GALACTOPYRANOSIDES” (Idorsia Pharmaceuticals Ltd, priority 2020, published 2023)
# pIC50: −log10 of the molar value.
# Legend:
# human Gal-1 (hGal-1) = human Gal-1 (hGal-1) (Homo sapiens, UniProt P09382); test: Competitive binding assay: biotinylated hGal-1 to microplate-adsorbed asialofetuin (ASF); conditions: Activities on hGal-1; binding to ASF-coated plates, 3 hours at 4° C.; mean values; read-out: Gal-1 IC50
# Procedure, shortened: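 Plate-adsorbed asialofetuin is incubated 3 h at 4 °C with biotinylated hGal-1, optionally its all-serine-substituted cysteine variant, plus compound dilutions. ABTS color after 1 h streptavidin-peroxidase (80 ng/mL) at 4 °C reports binding. Reported IC50 is a mean across repeat runs.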
# human Gal-3 (hGal-3) = human Gal-3 (hGal-3) (Homo sapiens (Human), UniProt P17931); test: Competitive binding assay: biotinylated hGal-3 to microplate-adsorbed asialofetuin (ASF); conditions: Activity on hGal-3; binding to ASF-coated plates, 3 hours at 4° C.; mean values
# human Gal-3 (hGal-3), sequence (P17931 whole entry): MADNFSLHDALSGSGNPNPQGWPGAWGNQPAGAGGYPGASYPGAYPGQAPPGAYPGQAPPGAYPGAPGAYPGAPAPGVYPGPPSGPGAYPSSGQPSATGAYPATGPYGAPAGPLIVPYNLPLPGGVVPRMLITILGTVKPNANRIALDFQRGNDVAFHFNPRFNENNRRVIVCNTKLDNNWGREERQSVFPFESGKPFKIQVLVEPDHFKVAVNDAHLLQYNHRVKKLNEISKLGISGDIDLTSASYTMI
# Procedure, shortened: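 Biotinylated hGal-3 (300-1000 ng/mL) binding to plate-adsorbed asialofetuin, with DMSO-diluted compound added, incubated 3 h at 4 °C. After washing, bound protein detected with streptavidin-peroxidase (80 ng/mL, 1 h, 4 °C) and ABTS substrate, read spectrophotometrically. IC50 given as mean of several measurements.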
# human Gal-1 (hGal-1), sequence (P09382 2-135 limits assumed): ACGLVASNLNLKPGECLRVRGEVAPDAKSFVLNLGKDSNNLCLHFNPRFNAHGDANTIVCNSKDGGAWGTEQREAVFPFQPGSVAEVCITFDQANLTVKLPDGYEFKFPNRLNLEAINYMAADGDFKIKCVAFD
Compound,pIC50 (human Gal-1 (hGal-1)),pIC50 (human Gal-3 (hGal-3))
"CO[C@@H]1[C@@H](n2cc(-c3ccc(F)c(F)c3F)nn2)[C@@H](O)[C@@H](CO)O[C@@H]1CC1=NO[C@]2(CC[C@H](NC(=O)OC(C)(C)C)CC2)C1 [Example 1.41, tert-butyl ((5r,8R)-3-(((2R,3R,4S,5R,6R)-5-hydroxy-6-(hydroxymethyl)-3-methoxy-4-(4-(2,3,4-trifluorophenyl)-1H-1,2,3-triazol-1-yl)tetrahydro-2H-pyran-2-yl)methyl)-1-oxa-2-azaspiro[4.5]dec-2-en-8-yl)carbamate]",6.52,7.92
"(2R,3R,4S,5R,6R)-6-((8,8-difluoro-1-oxa-2-azaspiro[4.5]dec-2-en-3-yl)methyl)-4-(4-(2,3-difluoro-4-methylphenyl)-1H-1,2,3-triazol-1-yl)-2-(hydroxymethyl)-5-methoxytetrahydro-2H-pyran-3-ol [Example 2.27]",4.94,7.09
"CO[C@@H]1[C@@H](n2cc(-c3ccc(Cl)c(F)c3F)nn2)[C@@H](O)[C@@H](CO)O[C@@H]1CC1=NOC2(C1)CN(C(=O)OC(C)(C)C)C2 [Example 1.80, tert-butyl 7-(((2R,3R,4S,5R,6R)-4-(4-(4-chloro-2,3-difluorophenyl)-1H-1,2,3-triazol-1-yl)-5-hydroxy-6-(hydroxymethyl)-3-methoxytetrahydro-2H-pyran-2-yl)methyl)-5-oxa-2,6-diazaspiro[3.4]oct-6-ene-2-carboxylate]",5.14,6.51
"CNC(=O)CO[C@@H]1[C@@H](n2cc(-c3cc(F)c(F)c(F)c3)nn2)[C@@H](O)[C@@H](CO)O[C@@H]1CC1=NOC2(CCCCC2)C1 [Example 1.70, 2-(((2R,3R,4S,5R,6R)-2-((1-oxa-2-azaspiro[4.5]dec-2-en-3-yl)methyl)-5-hydroxy-6-(hydroxymethyl)-4-(4-(3,4,5-trifluorophenyl)-1H-1,2,3-triazol-1-yl)tetrahydro-2H-pyran-3-yl)oxy)-N-methylacetamide]",5.29,6.62
"Cc1ccc(-c2cn([C@H]3[C@@H](O)[C@@H](CO)O[C@H](CC4=NOC5(CCC(F)(F)CC5)C4)[C@@H]3O)nn2)c(F)c1F [Example 1.04, (2R,3R,4R,5R,6R)-2-((8,8-difluoro-1-oxa-2-azaspiro[4.5]dec-2-en-3-yl)methyl)-4-(4-(2,3-difluoro-4-methylphenyl)-1H-1,2,3-triazol-1-yl)-6-(hydroxymethyl)tetrahydro-2H-pyran-3,5-diol]",4.98,6.77
"CO[C@@H]1[C@@H](n2cc(-c3ccc(Cl)c(F)c3)nn2)[C@@H](O)[C@@H](CO)O[C@@H]1CC1=NOC2(CCCCC2)C1 [Example 1.12, (2R,3R,4S,5R,6R)-6-((1-oxa-2-azaspiro[4.5]dec-2-en-3-yl)methyl)-4-(4-(4-chloro-3-fluorophenyl)-1H-1,2,3-triazol-1-yl)-2-(hydroxymethyl)-5-methoxytetrahydro-2H-pyran-3-ol]",5.96,6.51
"CO[C@@H]1[C@@H](n2cc(-c3cc(F)c(F)c(F)c3)nn2)[C@@H](O)[C@@H](CO)O[C@@H]1CC1=NO[C@]2(CC[C@@H](C#N)CC2)C1 [Example 1.39, (5s,8S)-3-(((2R,3R,4S,5R,6R)-5-hydroxy-6-(hydroxymethyl)-3-methoxy-4-(4-(3,4,5-trifluorophenyl)-1H-1,2,3-triazol-1-yl)tetrahydro-2H-pyran-2-yl)methyl)-1-oxa-2-azaspiro[4.5]dec-2-ene-8-carbonitrile]",5.15,6.59
"CO[C@@H]1[C@@H](n2cc(-c3cc(F)c(F)c(F)c3)nn2)[C@@H](O)[C@@H](CO)O[C@@H]1CC1=NO[C@]2(CC[C@H](NC(C)=O)CC2)C1 [Example 2.04, N-((5r,8R)-3-(((2R,3R,4S,5R,6R)-5-hydroxy-6-(hydroxymethyl)-3-methoxy-4-(4-(3,4,5-trifluorophenyl)-1H-1,2,3-triazol-1-yl)tetrahydro-2H-pyran-2-yl)methyl)-1-oxa-2-azaspiro[4.5]dec-2-en-8-yl)acetamide]",6.09,7.21
"CO[C@@H]1[C@@H](n2cc(-c3ccc(F)c(F)c3F)nn2)[C@@H](O)[C@@H](CO)O[C@@H]1CC1=NO[C@]2(CC[C@H](C(C)(C)O)CC2)C1 [Example 1.52, (2R,3R,4S,5R,6R)-2-(hydroxymethyl)-6-(((5r,8R)-8-(2-hydroxypropan-2-yl)-1-oxa-2-azaspiro[4.5]dec-2-en-3-yl)methyl)-5-methoxy-4-(4-(2,3,4-trifluorophenyl)-1H-1,2,3-triazol-1-yl)tetrahydro-2H-pyran-3-ol]",5.55,6.59
"CO[C@@H]1[C@@H](n2cc(-c3ccc(C)c(F)c3)nn2)[C@@H](O)[C@@H](CO)O[C@@H]1CC1=NOC2(CCCCC2)C1 [Example 1.20, (2R,3R,4S,5R,6R)-6-((1-oxa-2-azaspiro[4.5]dec-2-en-3-yl)methyl)-4-(4-(3-fluoro-4-methylphenyl)-1H-1,2,3-triazol-1-yl)-2-(hydroxymethyl)-5-methoxytetrahydro-2H-pyran-3-ol]",5.28,6.92
"CO[C@@H]1[C@@H](n2cc(-c3ccc(C)c(F)c3F)nn2)[C@@H](O)[C@@H](CO)O[C@@H]1CC1=NOC2(C1)CC1CCC2C1 (stereo partly drawn) [Example 1.81, (2R,3R,4S,5R,6R)-6-((4′H-spiro[bicyclo[2.2.1]heptane-2,5′-isoxazol]-3′-yl)methyl)-4-(4-(2,3-difluoro-4-methylphenyl)-1H-1,2,3-triazol-1-yl)-2-(hydroxymethyl)-5-methoxytetrahydro-2H-pyran-3-ol]",5.63,7.22
"CO[C@@H]1[C@@H](n2cc(-c3cc(F)c(F)c(F)c3)nn2)[C@@H](O)[C@@H](CO)O[C@@H]1CC1=NO[C@]2(CC[C@@H](NC(=O)OC(C)(C)C)CC2)C1 [Example 1.16, tert-butyl ((5s,8S)-3-(((2R,3R,4S,5R,6R)-5-hydroxy-6-(hydroxymethyl)-3-methoxy-4-(4-(3,4,5-trifluorophenyl)-1H-1,2,3-triazol-1-yl)tetrahydro-2H-pyran-2-yl)methyl)-1-oxa-2-azaspiro[4.5]dec-2-en-8-yl)carbamate]",5.64,6.47

# More lines, now with the values ahead:
pIC50 (human Gal-1 (hGal-1)),pIC50 (human Gal-3 (hGal-3)),Compound
5.38,6.47,"CO[C@@H]1[C@@H](n2cc(-c3cc(F)c(F)c(F)c3)nn2)[C@@H](O)[C@@H](CO)O[C@@H]1CC1=NOC2(CCN(C(=O)OC(C)(C)C)CC2)C1 [Example 1.06, tert-butyl 3-(((2R,3R,4S,5R,6R)-5-hydroxy-6-(hydroxymethyl)-3-methoxy-4-(4-(3,4,5-trifluorophenyl)-1H-1,2,3-triazol-1-yl)tetrahydro-2H-pyran-2-yl)methyl)-1-oxa-2,8-diazaspiro[4.5]dec-2-ene-8-carboxylate]"
5.85,6.68,"CO[C@@H]1[C@@H](n2cc(-c3cc(F)c(F)c(F)c3)nn2)[C@@H](O)[C@@H](CO)O[C@@H]1CC1=NOC2(CCC(NCC(F)(F)F)CC2)C1 (stereo partly drawn) [Example 2.17, (2R,3R,4S,5R,6R)-2-(hydroxymethyl)-5-methoxy-6-((8-((2,2,2-trifluoroethyl)amino)-1-oxa-2-azaspiro[4.5]dec-2-en-3-yl)methyl)-4-(4-(3,4,5-trifluorophenyl)-1H-1,2,3-triazol-1-yl)tetrahydro-2H-pyran-3-ol]"
6.34,7.31,"CO[C@@H]1[C@@H](n2cc(-c3ccc(Cl)c(F)c3F)nn2)[C@@H](O)[C@@H](CO)O[C@@H]1CC1=NO[C@]2(CC[C@H](C#N)CC2)C1 [Example 1.61, (5r,8R)-3-(((2R,3R,4S,5R,6R)-4-(4-(4-chloro-2,3-difluorophenyl)-1H-1,2,3-triazol-1-yl)-5-hydroxy-6-(hydroxymethyl)-3-methoxytetrahydro-2H-pyran-2-yl)methyl)-1-oxa-2-azaspiro[4.5]dec-2-ene-8-carbonitrile]"
5.42,7.19,"CO[C@@H]1[C@@H](n2cc(-c3ccc(C)c(F)c3F)nn2)[C@@H](O)[C@@H](CO)O[C@@H]1CC1=NOC2(CCOCC2)C1 [Example 1.36, (2R,3R,4S,5R,6R)-6-((1,8-dioxa-2-azaspiro[4.5]dec-2-en-3-yl)methyl)-4-(4-(2,3-difluoro-4-methylphenyl)-1H-1,2,3-triazol-1-yl)-2-(hydroxymethyl)-5-methoxytetrahydro-2H-pyran-3-ol]"
5.57,6.96,CO[C@@H]1[C@@H](n2cc(-c3ccc(C)c(F)c3F)nn2)[C@@H](O)[C@@H](CO)O[C@@H]1CC1=NOC2(CCNC(=O)CC2)C1 (mixture of isomers) [Example 1.76]
6.40,7.13,"CO[C@@H]1[C@@H](n2cc(-c3ccc(Cl)c(F)c3F)nn2)[C@@H](O)[C@@H](CO)O[C@@H]1CN1CC2(CCCCC2)CNC1=O [Example 4.02, 2-(((2R,3R,4S,5R,6R)-4-(4-(4-chloro-2,3-difluorophenyl)-1H-1,2,3-triazol-1-yl)-5-hydroxy-6-(hydroxymethyl)-3-methoxytetrahydro-2H-pyran-2-yl)methyl)-2,4-diazaspiro[5.5]undecan-3-one]"
5.09,6.80,"CO[C@@H]1[C@@H](n2cc(-c3ccc(C)c(F)c3F)nn2)[C@@H](O)[C@@H](CO)O[C@@H]1CC1=NOC2(CCCN(C(=O)OC(C)(C)C)CC2)C1 (mixture of isomers) [Example 1.75, tert-butyl (RS)-3-(((2R,3R,4S,5R,6R)-4-(4-(2,3-difluoro-4-methylphenyl)-1H-1,2,3-triazol-1-yl)-5-hydroxy-6-(hydroxymethyl)-3-methoxytetrahydro-2H-pyran-2-yl)methyl)-1-oxa-2,8-diazaspiro[4.6]undec-2-ene-8-carboxylate]"
